According to the NIST ThermoML archive (doi:10.1016/j.jct.2017.11.003):
Numbers after ± are expanded uncertainties.

Key:
[1] = 100 kPa, Liquid; for speed of sound: Frequency=2 MHz, Linear variable-path acoustic interferometer; for mass density: Vibrating tube method
[2] = xn = mol fraction of the nth substance listed; details: 100 kPa, Liquid; for speed of sound: Frequency=2 MHz, Linear variable-path acoustic interferometer; for mass density: Vibrating tube method

CCCCCCCCCO [nonan-1-ol]
speed of sound ([1]; 293.15 K): 1380.5 ± 4 m/s | mass density ([1]; 293.15 K): 828 ± 4 kg/m3 | speed of sound ([1]; 298.15 K): 1364.7 ± 4 m/s | mass density ([1]; 298.15 K): 824 ± 4 kg/m3 | speed of sound ([1]; 303.15 K): 1348.1 ± 4 m/s | mass density ([1]; 303.15 K): 821 ± 4 kg/m3 | speed of sound ([1]; 308.15 K): 1330.5 ± 4 m/s | mass density ([1]; 308.15 K): 818 ± 4 kg/m3

CCCCCCCCCO [nonan-1-ol] + Cc1ccccc1Cl
speed of sound ([2]; 293.15 K, x2 = 0): 1380.5 ± 4 m/s | mass density ([2]; 293.15 K, x2 = 0): 828 ± 4 kg/m3 | speed of sound ([2]; 298.15 K, x2 = 0): 1364.7 ± 4 m/s | mass density ([2]; 298.15 K, x2 = 0): 824 ± 4 kg/m3 | speed of sound ([2]; 303.15 K, x2 = 0): 1348.1 ± 4 m/s | mass density ([2]; 303.15 K, x2 = 0): 821 ± 4 kg/m3 | speed of sound ([2]; 308.15 K, x2 = 0): 1330.5 ± 4 m/s | mass density ([2]; 308.15 K, x2 = 0): 818 ± 4 kg/m3

ClCCCl [1,2-dichloroethane]
speed of sound ([1]; 293.15 K): 1212.5 ± 3.9 m/s | mass density ([1]; 293.15 K): 1253 ± 4 kg/m3 | speed of sound ([1]; 298.15 K): 1194.2 ± 3.9 m/s | mass density ([1]; 298.15 K): 1246 ± 4 kg/m3 | speed of sound ([1]; 303.15 K): 1174.1 ± 3.9 m/s | mass density ([1]; 303.15 K): 1238 ± 4 kg/m3 | speed of sound ([1]; 308.15 K): 1155.6 ± 3.9 m/s | mass density ([1]; 308.15 K): 1231 ± 4 kg/m3

ClCCCl [1,2-dichloroethane] + CCCCCCCCCO
speed of sound ([2]; 293.15 K, x1 = 1): 1212.5 ± 3.9 m/s | mass density ([2]; 293.15 K, x1 = 1): 1253 ± 4 kg/m3 | speed of sound ([2]; 298.15 K, x1 = 1): 1194.2 ± 3.9 m/s | mass density ([2]; 298.15 K, x1 = 1): 1246 ± 4 kg/m3 | speed of sound ([2]; 303.15 K, x1 = 1): 1174.1 ± 3.9 m/s | mass density ([2]; 303.15 K, x1 = 1): 1238 ± 4 kg/m3 | speed of sound ([2]; 308.15 K, x1 = 1): 1155.6 ± 3.9 m/s | mass density ([2]; 308.15 K, x1 = 1): 1231 ± 4 kg/m3

Cc1ccccc1Cl [2-chlorotoluene]
speed of sound ([1]; 293.15 K): 1317 ± 4 m/s | mass density ([1]; 293.15 K): 1082 ± 4 kg/m3 | speed of sound ([1]; 298.15 K): 1299.7 ± 4 m/s | mass density ([1]; 298.15 K): 1077 ± 4 kg/m3 | speed of sound ([1]; 303.15 K): 1283.9 ± 4 m/s | mass density ([1]; 303.15 K): 1073 ± 4 kg/m3 | speed of sound ([1]; 308.15 K): 1265.8 ± 4 m/s | mass density ([1]; 308.15 K): 1068 ± 4 kg/m3

Cc1ccc(Cl)cc1 [4-chlorotoluene]
speed of sound ([1]; 293.15 K): 1306.4 ± 4 m/s | mass density ([1]; 293.15 K): 1069 ± 4 kg/m3 | speed of sound ([1]; 298.15 K): 1288.2 ± 4 m/s | mass density ([1]; 298.15 K): 1065 ± 4 kg/m3 | speed of sound ([1]; 303.15 K): 1270 ± 3.9 m/s | mass density ([1]; 303.15 K): 1060 ± 4 kg/m3 | speed of sound ([1]; 308.15 K): 1252.1 ± 3.9 m/s | mass density ([1]; 308.15 K): 1054 ± 4 kg/m3

Cc1cccc(Cl)c1 [3-chlorotoluene]
speed of sound ([1]; 293.15 K): 1313.8 ± 4 m/s | mass density ([1]; 293.15 K): 1072 ± 4 kg/m3 | speed of sound ([1]; 298.15 K): 1296.5 ± 4 m/s | mass density ([1]; 298.15 K): 1067 ± 4 kg/m3 | speed of sound ([1]; 303.15 K): 1279.5 ± 4 m/s | mass density ([1]; 303.15 K): 1063 ± 4 kg/m3 | speed of sound ([1]; 308.15 K): 1261.2 ± 4 m/s | mass density ([1]; 308.15 K): 1058 ± 4 kg/m3

CCCCCCCCCO [nonan-1-ol] + Cc1ccc(Cl)cc1
speed of sound ([2]; 293.15 K, x2 = 0): 1380.5 ± 4 m/s | mass density ([2]; 293.15 K, x2 = 0): 828 ± 4 kg/m3 | speed of sound ([2]; 298.15 K, x2 = 0): 1364.7 ± 4 m/s | mass density ([2]; 298.15 K, x2 = 0): 824 ± 4 kg/m3 | speed of sound ([2]; 303.15 K, x2 = 0): 1348.1 ± 4 m/s | mass density ([2]; 303.15 K, x2 = 0): 821 ± 4 kg/m3 | speed of sound ([2]; 308.15 K, x2 = 0): 1330.5 ± 4 m/s | mass density ([2]; 308.15 K, x2 = 0): 818 ± 4 kg/m3

CCCCCCCCCO [nonan-1-ol] + Cc1cccc(Cl)c1
speed of sound ([2]; 293.15 K, x2 = 0): 1380.5 ± 4 m/s | mass density ([2]; 293.15 K, x2 = 0): 828 ± 4 kg/m3 | speed of sound ([2]; 298.15 K, x2 = 0): 1364.7 ± 4 m/s | mass density ([2]; 298.15 K, x2 = 0): 824 ± 4 kg/m3 | speed of sound ([2]; 303.15 K, x2 = 0): 1348.1 ± 4 m/s | mass density ([2]; 303.15 K, x2 = 0): 821 ± 4 kg/m3 | speed of sound ([2]; 308.15 K, x2 = 0): 1330.5 ± 4 m/s | mass density ([2]; 308.15 K, x2 = 0): 818 ± 4 kg/m3
